Assays:
Assay in all cases: relative viability (nuclei count vs DMSO), 5 days (fraction); higher = more cells survive
ABC-1 = test system: ABC-1
Outline: (§1)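 Lung cancer cell lines were seeded in 1536-well plates and dosed by pin tool the next day, with either a single drug or a fixed anchor-drug dose combined with five library-drug doses (not always all listed) spaced in √10 steps. Five days later, one step fixed the cells and stained their nuclei (final 0.05% Triton X-100, 1% formaldehyde, 1 ug/ml Hoechst), and nuclei were counted on 4× images. Relative viability is the nuclei count in treated wells divided by the count in vehicle wells, and each value is the median of duplicate plates.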

BEN = test system: BEN
Outline: as §1

EPLC-272H = test system: EPLC-272H
Outline: as §1

HCC-827 = test system: HCC-827
Outline: as §1

HOP-62 = test system: HOP-62
Outline: as §1

LU99A = test system: LU99A
Outline: as §1

NCI-H1355 = test system: NCI-H1355
Outline: as §1

NCI-H1563 = test system: NCI-H1563
Outline: as §1

NCI-H1666 = test system: NCI-H1666
Outline: as §1

NCI-H1792 = test system: NCI-H1792
Outline: as §1

NCI-H1975 = test system: NCI-H1975
Outline: as §1

NCI-H2170 = test system: NCI-H2170
Outline: as §1

NCI-H23 = test system: NCI-H23
Outline: as §1

NCI-H2405 = test system: NCI-H2405
Outline: as §1

NCI-H3122 = test system: NCI-H3122
Outline: as §1

NCI-H322M = test system: NCI-H322M
Outline: as §1

NCI-H358 = test system: NCI-H358
Outline: as §1

NCI-H520 = test system: NCI-H520
Outline: as §1

NCI-H596 = test system: NCI-H596
Outline: as §1

NCI-H647 = test system: NCI-H647
Outline: as §1

NCI-H727 = test system: NCI-H727
Outline: as §1

NCI-H838 = test system: NCI-H838
Outline: as §1

PC-14 = test system: PC-14
Outline: as §1

SW 900 = test system: SW 900
Outline: as §1

UMC-11 = test system: UMC-11
Outline: as §1

## CCCCCCCCCCCC1=C(O)C(=O)C=C(O)C1=O [Embelin] + CCNC(=O)c1noc(-c2cc(C(C)C)c(O)cc2O)c1-c1ccc(CN2CCOCC2)cc1 [Luminespib] (partner 0.01 µM)
ABC-1; first compound 0.08 µM
  relative viability: 0.546
ABC-1; first compound 0.8 µM
  relative viability: 0.841
ABC-1; first compound 2.53 µM
  relative viability: 0.913
ABC-1; first compound 8 µM
  relative viability: 0.825
BEN; first compound 0.08 µM
  relative viability: 0.29
BEN; first compound 0.8 µM
  relative viability: 1.12
BEN; first compound 2.53 µM
  relative viability: 0.435
BEN; first compound 8 µM
  relative viability: 0.517
EPLC-272H; first compound 0.08 µM
  relative viability: 0.69
EPLC-272H; first compound 0.8 µM
  relative viability: 0.222
EPLC-272H; first compound 2.53 µM
  relative viability: 0.253
EPLC-272H; first compound 8 µM
  relative viability: 0.266
HCC-827; first compound 0.08 µM
  relative viability: 0.857
HCC-827; first compound 0.8 µM
  relative viability: 0.885
HCC-827; first compound 2.53 µM
  relative viability: 0.864
HCC-827; first compound 8 µM
  relative viability: 0.657
HOP-62; first compound 0.08 µM
  relative viability: 0.971
HOP-62; first compound 0.8 µM
  relative viability: 0.958
HOP-62; first compound 2.53 µM
  relative viability: 1.07
HOP-62; first compound 8 µM
  relative viability: 0.842
LU99A; first compound 0.08 µM
  relative viability: 0.273
LU99A; first compound 0.8 µM
  relative viability: 0.275
LU99A; first compound 2.53 µM
  relative viability: 0.28
LU99A; first compound 8 µM
  relative viability: 0.279
NCI-H1355; first compound 0.08 µM
  relative viability: 0.764
NCI-H1355; first compound 0.8 µM
  relative viability: 0.847
NCI-H1355; first compound 2.53 µM
  relative viability: 0.837
NCI-H1355; first compound 8 µM
  relative viability: 0.657
NCI-H1563; first compound 0.08 µM
  relative viability: 0.568
NCI-H1563; first compound 0.8 µM
  relative viability: 0.573
NCI-H1563; first compound 2.53 µM
  relative viability: 0.526
NCI-H1563; first compound 8 µM
  relative viability: 0.487
NCI-H1666; first compound 0.08 µM
  relative viability: 1.04
NCI-H1666; first compound 0.8 µM
  relative viability: 1.01
NCI-H1666; first compound 2.53 µM
  relative viability: 1.04
NCI-H1666; first compound 8 µM
  relative viability: 1.01
NCI-H1792; first compound 0.08 µM
  relative viability: 0.363
NCI-H1792; first compound 0.8 µM
  relative viability: 0.515
NCI-H1792; first compound 2.53 µM
  relative viability: 0.46
NCI-H1792; first compound 8 µM
  relative viability: 0.516
NCI-H1975; first compound 0.08 µM
  relative viability: 0.296
NCI-H1975; first compound 0.8 µM
  relative viability: 0.282
NCI-H1975; first compound 2.53 µM
  relative viability: 0.293
NCI-H1975; first compound 8 µM
  relative viability: 0.2
NCI-H2170; first compound 0.08 µM
  relative viability: 0.701
NCI-H2170; first compound 0.8 µM
  relative viability: 0.753
NCI-H2170; first compound 2.53 µM
  relative viability: 0.397
NCI-H2170; first compound 8 µM
  relative viability: 0.589
NCI-H23; first compound 0.08 µM
  relative viability: 0.228
NCI-H23; first compound 0.8 µM
  relative viability: 0.212
NCI-H23; first compound 2.53 µM
  relative viability: 0.221
NCI-H23; first compound 8 µM
  relative viability: 0.232
NCI-H2405; first compound 0.08 µM
  relative viability: 0.723
NCI-H2405; first compound 0.8 µM
  relative viability: 0.681
NCI-H2405; first compound 2.53 µM
  relative viability: 0.775
NCI-H2405; first compound 8 µM
  relative viability: 0.738
NCI-H3122; first compound 0.08 µM
  relative viability: 0.068
NCI-H3122; first compound 0.8 µM
  relative viability: 0.0941
NCI-H3122; first compound 2.53 µM
  relative viability: 0.0799
NCI-H3122; first compound 8 µM
  relative viability: 0.0894
NCI-H322M; first compound 0.08 µM
  relative viability: 0.951
NCI-H322M; first compound 0.8 µM
  relative viability: 1.04
NCI-H322M; first compound 2.53 µM
  relative viability: 1.19
NCI-H322M; first compound 8 µM
  relative viability: 0.83
NCI-H358; first compound 0.08 µM
  relative viability: 0.464
NCI-H358; first compound 0.8 µM
  relative viability: 0.447
NCI-H358; first compound 2.53 µM
  relative viability: 0.44
NCI-H358; first compound 8 µM
  relative viability: 0.306
NCI-H520; first compound 0.08 µM
  relative viability: 0.224
NCI-H520; first compound 0.8 µM
  relative viability: 0.29
NCI-H520; first compound 2.53 µM
  relative viability: 0.183
NCI-H520; first compound 8 µM
  relative viability: 0.235
NCI-H596; first compound 0.08 µM
  relative viability: 1.05
NCI-H596; first compound 0.8 µM
  relative viability: 0.795
NCI-H596; first compound 2.53 µM
  relative viability: 1.43
NCI-H596; first compound 8 µM
  relative viability: 0.904
NCI-H647; first compound 0.08 µM
  relative viability: 0.233
NCI-H647; first compound 0.8 µM
  relative viability: 0.326
NCI-H647; first compound 2.53 µM
  relative viability: 0.138
NCI-H647; first compound 8 µM
  relative viability: 0.132
NCI-H727; first compound 0.08 µM
  relative viability: 0.317
NCI-H727; first compound 0.8 µM
  relative viability: 0.417
NCI-H727; first compound 2.53 µM
  relative viability: 0.304
NCI-H727; first compound 8 µM
  relative viability: 0.386
NCI-H838; first compound 0.08 µM
  relative viability: 0.292
NCI-H838; first compound 0.8 µM
  relative viability: 0.449
NCI-H838; first compound 2.53 µM
  relative viability: 0.362
NCI-H838; first compound 8 µM
  relative viability: 0.244
PC-14; first compound 0.08 µM
  relative viability: 0.203
PC-14; first compound 0.8 µM
  relative viability: 0.235
PC-14; first compound 2.53 µM
  relative viability: 0.211
PC-14; first compound 8 µM
  relative viability: 0.167
SW 900; first compound 0.08 µM
  relative viability: 0.196
SW 900; first compound 0.8 µM
  relative viability: 0.138
SW 900; first compound 2.53 µM
  relative viability: 0.188
SW 900; first compound 8 µM
  relative viability: 0.18
UMC-11; first compound 0.08 µM
  relative viability: 1.1
UMC-11; first compound 0.8 µM
  relative viability: 1.15
UMC-11; first compound 2.53 µM
  relative viability: 1.27
UMC-11; first compound 8 µM
  relative viability: 1.22

From the supplement of paper PMC10307832
